US20250313879A1, “Fluorescent Probe for Detecting Peptide Bond Hydrolase” (The University of Tokyo, priority 2022, published 2025)
Numbered stars: 1 amine (or outer) side, 2 acyl side, 3 side chain; on linkers, the order of the positions; unused ones are H or OH. Square brackets hold non-standard residues; d marks the D form. Peptide text beside a SMILES is read from it. * marks the point of attachment. X2 = Cc1ccc(S(=O)(=O)O)cc1C1=C2C=CC(=N)C=C2[Si](C)(C)c2cc(N*)ccc21; X1 = Nc1ccc2c(c1)Oc1cc(N*)ccc1C21OCc2cc(S(=O)(=O)O)ccc21; Suc = O=C(CCC(=O)[*:2])[*:1]

Tests used:
Assay type in all cases: biochemical
[1] = system: peptidase activity in human plasma sample; assay: Enzyme activity assay in microdevice with human plasma, peptidase probes; conditions: 50 μM probe
Description: (§1) • 1. GP-sHMRG as a fluorescent probe for detecting peptidase activity was diluted with an assay buffer to 100 μM. The composition of the assay buffer is 100 mM HEPES-NaOH (pH 7.4), 1 mM MgCl2, 1 mM CaCl2, 1 mM DTT, 3 mM Triton X-100. • 2. Next, a human plasma sample was diluted by 2,500 times with the above assay buffer, and mixed in an equal amount with the diluted solution of the probe. At this time, the final concentrations of both are 50 μM for GP-sHMRG and 5,000 fold dilution for the human plasma sample. • 3. The mixed solution of both was then added to a microdevice, followed by the addition of sealing oil to enclose the solution in each well. • 4. The microdevice in which the solution was enclosed was incubated at 25° C. for 2 hours, and then the fluorescence intensity of each well was measured with a fluorescence microscope.
as §1, with “1. Ac-Ala-sHMRG” for “1. GP-sHMRG”, “by 250” for “by 2,500”, “for Ac-Ala-sHMRG” for “for GP-sHMRG”, “and 500” for “and 5,000”, “at 37°” for “at 25°”, “for 4” for “for 2”
• 1. Ac-GP-sSiR as a fluorescent probe for detecting peptidase activity was diluted with an assay buffer to 100 μM. The composition of the assay buffer is 100 mM HEPES-NaOH (pH 7.4), 1 mM MgCl2, 1 mM CaCl2, 1 mM DTT, 3 mM Triton X-100. • 2. […] The microdevice in which the solution was enclosed was incubated at 37° C. for 2 hours, and then the fluorescence intensity of each well was measured with a fluorescence microscope.

[2] = system: protease activity in human plasma sample; assay: Enzyme activity assay in microdevice with human plasma, protease probes
Description: • 1. Suc-AAPA-sHMRG as a fluorescent probe for detecting protease activity was diluted with an assay buffer to 200 μM. The composition of the assay buffer is 100 mM HEPES-NaOH (pH 7.4), 1 mM MgCl2, 1 mM CaCl2, 1 mM DTT, 3 mM Triton X-100. • 2. Next, a human plasma sample was diluted by 250 times with the above assay buffer, and mixed in an equal amount with the diluted solution of the probe. At this time, the final concentrations of both are 100 μM for Suc-AAPA-sHMRG and 500 fold dilution for the human plasma sample. • 3. The mixed solution of both was then added to a microdevice, followed by the addition of sealing oil to enclose the solution in each well. • 4. The microdevice in which the solution was enclosed was incubated at 37° C. for 4 hours, and then the fluorescence intensity of each well was measured with a fluorescence microscope.
as §1, with “Ac-LRGG-sSiR” for “GP-sHMRG”, “protease” for “peptidase”, “10,000” for “2,500”, “20,000” for “5,000”, “37°” for “25°”
• 1. EP-sSiR as a fluorescent probe for detecting protease activity was diluted with an assay buffer to 60 μM. […] The microdevice in which the solution was enclosed was incubated at 25° C. for 2 hours, and then the fluorescence intensity of each well was measured with a fluorescence microscope.

[3] = system: aminopeptidase activity in human plasma sample; assay: Enzyme activity assay in microdevice with human plasma, aminopeptidase probes; conditions: 50 μM probe
Description: • 1. Ala-sHMRG as a fluorescent probe for detecting aminopeptidase activity was diluted with an assay buffer to 100 μM. The composition of the assay buffer is 100 mM HEPES-NaOH (pH 7.4), 1 mM MgCl2, 0.1% BSA, 1 mM DTT, 1 mM Triton X-100, • 2. Next, a human plasma sample was diluted by 500 times with the above assay buffer, and mixed in an equal amount with the diluted solution of the probe. At this time, the final concentrations of both are 50 μM for Ala-sHMRG and 1,000 fold dilution for the human plasma sample. • 3. The mixed solution of both was then added to a microdevice, followed by the addition of sealing oil to enclose the solution in each well. • 4. The microdevice in which the solution was enclosed was incubated at 37° C. for 4 hours, and then the fluorescence intensity of each well was measured with a fluorescence microscope.
as §1, with “1. Leu-sHMRG” for “1. GP-sHMRG”, “detecting aminopeptidase” for “detecting peptidase”, “MgCl2,” for “MgCl2, 1 mM CaCl2,”, “for Leu-sHMRG” for “for GP-sHMRG”, “at 37°” for “at 25°”, “for 4” for “for 2”
(§2) • 5. Met-sHMRG as a fluorescent probe for detecting aminopeptidase activity was diluted with an assay buffer to 100 μM. The composition of the assay buffer is 100 mM HEPES-NaOH (pH 7.4), 1 mM MgCl2, 1 mM CaCl2, 1 mM DTT, 3 mM Triton X-100. • 6. Next, a human plasma sample was diluted by 500 times with the above assay buffer, and mixed in an equal amount with the diluted solution of the probe. At this time, the final concentrations of both are 50 μM for Met-sHMRG and 1,000 fold dilution for the human plasma sample. • 7. The mixed solution of both was then added to a microdevice, followed by the addition of sealing oil to enclose the solution in each well. • 8. The microdevice in which the solution was enclosed was incubated at 37° C. for 2 hours, and then the fluorescence intensity of each well was measured with a fluorescence microscope.
as §2, with “• 9. Tyr-sHMRG” for “• 5. Met-sHMRG”, “• 10.” for “• 6.”, “for Tyr-sHMRG” for “for Met-sHMRG”, “• 11.” for “• 7.”, “• 12.” for “• 8.”, “for 4” for “for 2”
• 1. Lys-sHMRG as a fluorescent probe for detecting aminopeptidase activity was diluted with an assay buffer to 100 μM. The composition of the assay buffer is 100 mM HEPES-NaOH (pH 7.4), 1 mM MgCl2, 1 mM CaCl2, 1 mM DTT, 3 mM Triton X-100. • 2. Next, a human plasma sample was diluted by 10,000 times with the above assay buffer, and mixed in an equal amount with the diluted solution of the probe. At this time, the final concentrations of both are 50 μM for Lys-sHMRG and 20,000 fold dilution for the human plasma sample. • 3. […]

[4] = human plasma 20,000 fold dilution, 37° C. for 2 hours
[5] = human plasma 1,000 fold dilution, 37° C. for 4 hours
[6] = human plasma 1,000 fold dilution, 37° C. for 2 hours

CC(=O)N[C@@H](C)C(=O)Nc1ccc2c(c1)Oc1cc(N)ccc1C21OCc2cc(S(=O)(=O)O)ccc21 (stereo partly shown) [Ac-Ala-sHMRG]
fluorescence intensity of wells in which the reacting enzyme was enclosed ([1]; human plasma 500 fold dilution, 37° C. for 4 hours): increase in fluorescence intensity was observed

CC(=O)NCC(=O)N1CCCC1C(=O)Nc1ccc2c(c1)[Si](C)(C)C1=CC(=N)C=CC1=C2c1cc(S(=O)(=O)O)ccc1C (stereo not shown) [Ac-GP-sSiR]
fluorescence intensity of wells in which the reacting enzyme was enclosed [1, 4]: increase in fluorescence intensity was observed

CC(=O)N[C@@H](CC(C)C)C(=O)N[C@H](CCCNC(=N)N)C(=O)NCC(=O)NCC(=O)Nc1ccc2c(c1)[Si](C)(C)C1=CC(=N)C=CC1=C2c1cc(S(=O)(=O)O)ccc1C [Ac-LRGG-sSiR] (Ac-L[dR]GG-X2)
fluorescence intensity of wells in which the reacting enzyme was enclosed ([2]; 50 μM probe, human plasma 20,000 fold dilution, 37° C. for 2 hours): increase in fluorescence intensity was observed

C[C@H](N)C(=O)Nc1ccc2c(c1)Oc1cc(N)ccc1C21OCc2cc(S(=O)(=O)O)ccc21 (stereo partly shown) [Ala-sHMRG]
fluorescence intensity of wells in which the reacting enzyme was enclosed [3, 5]: increase in fluorescence intensity was observed

Cc1ccc(S(=O)(=O)O)cc1C1=C2C=CC(=N)C=C2[Si](C)(C)c2cc(NC(=O)[C@@H](N)CCCNC(=N)N)ccc21 [Arg-sSiR]
fluorescence intensity of wells in which the reacting enzyme was enclosed [3, 5]: increase in fluorescence intensity was observed

Cc1ccc(S(=O)(=O)O)cc1C1=C2C=CC(=N)C=C2[Si](C)(C)c2cc(NC(=O)C3CCCN3C(=O)[C@@H](N)CCC(=O)O)ccc21 (stereo partly shown) [EP-sSiR]
fluorescence intensity of wells in which the reacting enzyme was enclosed ([2]; 30 μM probe, human plasma 5,000 fold dilution, 25° C. for 2 hours): increase in fluorescence intensity was observed

CC(C)C[C@H](N)C(=O)Nc1ccc2c(c1)Oc1cc(N)ccc1C21OCc2cc(S(=O)(=O)O)ccc21 (stereo partly shown) [Leu-sHMRG]
fluorescence intensity of wells in which the reacting enzyme was enclosed ([3]; human plasma 5,000 fold dilution, 37° C. for 4 hours): increase in fluorescence intensity was observed

NCCCC[C@H](N)C(=O)Nc1ccc2c(c1)Oc1cc(N)ccc1C21OCc2cc(S(=O)(=O)O)ccc21 (stereo partly shown) [Lys-sHMRG]
fluorescence intensity of wells in which the reacting enzyme was enclosed [3, 4]: increase in fluorescence intensity was observed

CSCC[C@H](N)C(=O)Nc1ccc2c(c1)Oc1cc(N)ccc1C21OCc2cc(S(=O)(=O)O)ccc21 (stereo partly shown) [Met-sHMRG]
fluorescence intensity of wells in which the reacting enzyme was enclosed [3, 6]: increase in fluorescence intensity was observed

C[C@H](NC(=O)CCC(=O)O)C(=O)N[C@@H](C)C(=O)N1CCC[C@@H]1C(=O)N[C@@H](C)C(=O)Nc1ccc2c(c1)Oc1cc(N)ccc1C21OCc2cc(S(=O)(=O)O)ccc21 (stereo partly shown) [Suc-AAPA-sHMRG] (Suc-AA[dP]A-X1)
fluorescence intensity of wells in which the reacting enzyme was enclosed ([2]; 100 μM probe, human plasma 500 fold dilution, 37° C. for 4 hours): increase in fluorescence intensity was observed

Cc1ccc(S(=O)(=O)O)cc1C1=C2C=CC(=N)C=C2[Si](C)(C)c2cc(NC(=O)[C@@H](N)Cc3c[nH]c4ccccc34)ccc21 [Trp-sSiR]
fluorescence intensity of wells in which the reacting enzyme was enclosed [3, 5]: increase in fluorescence intensity was observed

Nc1ccc2c(c1)Oc1cc(NC(=O)[C@@H](N)Cc3ccc(O)cc3)ccc1C21OCc2cc(S(=O)(=O)O)ccc21 (stereo partly shown) [Tyr-sHMRG]
fluorescence intensity of wells in which the reacting enzyme was enclosed [3, 5]: increase in fluorescence intensity was observed

Nc1ccc2c(c1)Oc1cc(NC(=O)CC[C@@H](N)C(=O)O)ccc1C21OCc2cc(S(=O)(=O)O)ccc21 (stereo partly shown) [gGlu-sHMRG]
fluorescence intensity of wells in which the reacting enzyme was enclosed [3, 6]: increase in fluorescence intensity was observed
